Source: patent publication US11324680B2, “Topical compositions” (priority 2017, dated 2022)

Tested on: Propionibacterium acnes
Experiment: Antimicrobial efficacy in analogy to challenge test NF EN ISO11930, protection against acne
Type: cell-based
Conditions: 24 h; for Log reduction: Propionibacterium acnes; for Propionibacterium acnes colony count: 22° C., initial contamination 310000 cfu/ml
Method: The antimicrobial efficacy is assessed in analogy to the regulatory challenge test method (NF EN ISO11930). Thus, solutions of the respective active(s) in ethanol are prepared and further dissolved in physiological serum with 0.85 wt.-% NaCl in the concentrations as outlined in table 1 under sterile conditions. The samples were solubilized in physiological serum supplemented with 1 wt.-% ethanol. A control was prepared under sterile condition based on a serum with 0.85 wt.-% NaCl and 1 wt.-% ethanol (C1). […] The wells are contaminated resulting in the initial contamination as outlined in table 1. After the contamination, each well was thoroughly mixed to ensure a homogeneous distribution of bacteria. Then each plate was incubated at 22° C. for 24 h. The counting of the (remaining) population is carried out 24 h after contamination.

Compound: O=C(CO)[C@H](O)CO (racemic) [erythrulose]
- Log reduction (single active at 0.1 wt.-%): 2
- Log reduction (single active at 0.3 wt.-%): 3.5
- Propionibacterium acnes colony count (single active at 0.1 wt.-%): 3300 cfu/ml
- Propionibacterium acnes colony count (single active at 0.3 wt.-%): 100 cfu/ml

Compound: CCCCCCCC(=O)OCC(O)CO (centres unmarked) [glyceryl caprylate, Glyceryl caprylate]
- Log reduction (single active at 0.2 wt.-%): 3
- Log reduction (single active at 0.3 wt.-%): 4.5
- Propionibacterium acnes colony count (single active at 0.2 wt.-%): 260 cfu/ml
- Propionibacterium acnes colony count (single active at 0.3 wt.-%): 10 cfu/ml
